Experimental data as given in patent publication US10253323B2, “Chloroplast transit peptides” (priority 2015, dated 2019).
“Also recorded” adds a separate entry of the source.

Key:
[1] = tested on: chloroplasts of the tobacco leaf tissues; assay: Tobacco transient assay, confocal microscopy of TraP-YFP/GFP; assay type: cell-based, Nicotiana tabacum; settings: TraP-YFP or TraP-GFP fusion, Agrobacterium-infiltrated tobacco leaf tissue
From the text: The above described chimeric chloroplast transit peptide sequences were initially tested via a transient in planta assay. Polynucleotide sequences which encode the TraP10 (SEQ ID NO:9), TraP11 (SEQ ID NO:10), TraP17 (SEQ ID NO:11), TraP18 (SEQ ID NO:12), TraP19 (SEQ ID NO:13), TraP26 (SEQ ID NO:14), TraP27 (SEQ ID NO:15), and TraP28 (SEQ ID NO:16), chimeric chloroplast transit peptide sequences were synthesized. A linker sequence (SEQ ID NO:17) was incorporated between the TraP sequence and the yfp coding sequence of TraP10 and TraP11. The resulting constructs contained two plant transcription units (PTU). The first PTU was comprised of the Arabidopsis thaliana Ubiquitin 10 promoter (AtUbi10 promoter; Callis, et al., (1990) J. Biol. Chem., 265: 12486-12493), TraP-yellow fluorescent protein fusion gene (TraP-YFP; US Patent App. 2007/0298412) or the TraP-green fluorescent protein fusion gene (TraP-GFP; Sheen et al., (1995) Plant J., 8(5): 777-84), and Agrobacterium tumefaciens ORF 23 3′ untranslated region (AtuORF23 3′UTR; U.S. Pat. No. 5,428,147). The second PTU was comprised of the Cassava Vein Mosaic Virus promoter (CsVMV promoter; Verdaguer et al., (1996) Plant Molecular Biology, 31: 1129-1139), phosphinothricin acetyl transferase (PAT; Wohlleben et al., (1988) Gene, 70: 25-37) or DSM-II (International Patent App. 2008070845), and Agrobacterium tumefaciens ORF 1 3′ untranslated region (AtuORF1 3′UTR; Huang et al., (1990) J. Bacteriol., 172: 1814-1822). Construct pDAB101979 contains the TraP10 chimeric chloroplast transit peptide (FIG. 3). Construct pDAB101980 contains the TraP11 chimeric chloroplast transit peptide (FIG. 4). Construct pDAB107634 contains the TraP17 chimeric chloroplast transit peptide (FIG. 5). Construct pDAB107635 contains the TraP18 chimeric chloroplast transit peptide (FIG. 6). Construct pDAB107636 contains the TraP19 chimeric chloroplast transit peptide (FIG. 7). Construct pDAB109847 contains the TraP26 chimeric chloroplast transit peptide (FIG. 8). Construct pDAB109848 contains the TraP27 chimeric chloroplast transit peptide (FIG. 9). Construct pDAB109849 contains the TraP28 chimeric chloroplast transit peptide (FIG. 10). […] The constructs were confirmed via restriction enzyme digestion and sequencing. Finally, the constructs were transformed into Agrobacterium tumefaciens and stored as glycerol stocks.
From an Agrobacterium glycerol stock, a loop full of frozen culture was inoculated into 2 ml of Yeast-extract Peptone Dextrose (100 μg/ml spectinomycin) in a 14 ml sterile tube. The inoculated media was incubated at 28° C. overnight with shaking at 200 rpm. The following day about 100 μl of the culture was used to inoculate 25 ml of YPD (100 μg/ml spectinomycin) in a 125 ml sterile tri-baffled flask, and incubated overnight at 28° C. overnight with shaking at 200 rpm. The following day the cultures were diluted to an OD600 of 0.5 in sterile ddH2O (pH 8.0). The diluted Agrobacterium strain was mixed with a second Agrobacterium strain containing the P19 helper protein at a ratio of 1:1. The culture were used for tobacco leaf infiltration via the Voinnet method. Voinnet O, Rivas S, Mestre P, and Baulcombe D, (2003) An enhanced transient expression system in plants based on suppression of gene silencing by the p19 protein of tomato bushy stunt virus. The Plant Journal, 33: 949-956. Infiltrated tobacco plants were placed in a Conviron™ set at 16 hr of light at 24° C. for at least three days until being assayed.
Agrobacterium-infiltrated tobacco leaves were severed from the plant, and placed into a petri-dish with water to prevent dehydration. The infiltrated tobacco leaves were observed under blue light excitation with long-pass filter glasses held in place using a Dark Reader Hand Lamp™ (Clare Chemical Research Co.; Dolores, Colo.) to identify undamaged areas of the leaf that were successfully expressing the YFP or GFP reporter proteins. […]

[2] = tested on: infiltrated tobacco cells; assay: Western blot of infiltrated tobacco plants; assay type: cell-based, Nicotiana tabacum; settings: infiltrated tobacco leaf tissue
Procedure: Samples of the infiltrated tobacco plants were assayed via Western blotting. Leaf punches were collected and subjected to bead-milling. About 100-200 mg of leaf material was mixed with 2 BBs (Daisy; Rogers, Ark.) and […] of PBST for 3 minutes in a Kleco™ bead mill. The samples were then spun down in a centrifuge at 14,000× g at 4° C. The supernatant was removed and either analyzed directly via Western blot or immunoprecipitated. The immunoprecipitations were performed using the Pierce Direct IP Kit™ (Thermo Scientific; Rockford, Ill.) following the manufacturer's protocol. Approximately, 50 μg of anti-YFP or anti-GFP was bound to the resin. The samples were incubated with the resin overnight at 4° C. Next, the samples were washed and eluted the following morning and prepped for analysis by combining equal volumes of 2×8M Urea sample buffer and then boiling the samples for 5 minutes. The boiled samples were run on a 4-12% SDS-Bis Tris gel in MOPS buffer for 40 minutes. The gel was then blotted using the Invitrogen iBlot™ (Life Technologies; Carlsbad, Calif.) following the manufacturer's protocol. The blotted membrane was blocked for 10 minutes using 5% non-fat dry milk in PBS-Tween® solution. The membrane was probed with the primary antibody (monoclonal anti-GFP or anti-YFP in rabbit) used at a 1:1000 dilution in the 5% non-fat dry milk in PBS-Tween® solution for 1 hour. Next, the membrane was rinsed three times for five minutes with PBS-Tween® to remove all unbound primary antibody. The membrane was probed with a secondary monoclonal anti-rabbit in goat antibody (Life Technologies) used at a 1:1000 dilution, for 60 minutes. The membrane was washed as previously described and developed by adding Themo BCIP/NBT™ substrate. The colormetric substrate was allowed to develop for 5-10 minutes and then the blots were rinsed with water before being dried.

[3] = tested on: dgt-28 transformed T1 Arabidopsis; assay: Glyphosate tolerance of dgt-28 transformed T1 Arabidopsis; assay type: in vivo, Arabidopsis thaliana; settings: dgt-28 linked with the chloroplast transit peptide, T1 Arabidopsis
Procedure: The Arabidopsis T1 transformants (from transformation with pDAB114286 or pDAB114287) were first selected from the background of untransformed seed using a glufosinate selection scheme. Three flats or 50,000 seed were analyzed for each T1 construct. The selected T1 plants were molecularly characterized (as described above) and events with a range of copy number were sprayed with various rates of commercial glyphosate.
Transgenic T1 Arabidopsis plants containing the dgt-28 transgene were sprayed with differing rates of glyphosate. Elevated rates were applied in this study to determine the relative levels of resistance (420, 840, 1,680 or 3,360 g ae/ha). The typical 1× field usage rate of glyphosate is 1120 g ae/ha. The response of these plants is presented in terms of % visual injury 2 weeks after treatment (WAT). The T1 Arabidopsis plants that were used in this study were of variable copy number for the dgt-28 transgene. The low copy dgt-28 T1 Arabidopsis plants were self-pollinated and used to produce T2 plants.
An arithmetic mean and standard deviation is presented for each construct used for Arabidopsis transformation. The range in individual response is also indicated in the last column for each rate and transformation. Wildtype, non-transformed Arabidopsis thaliana c.v. Columbia served as a glyphosate sensitive control.

[4] = tested on: chloroplasts of the maize protoplasts; assay: Maize protoplast transient assay, microscopy of TraP-GFP; assay type: cell-based, Zea mays c.v. B104; settings: TraP-GFP fusion, transfected maize protoplasts, microscopy after 12 hours
Procedure: Seed of Zea mays c.v. B104 were surface sterilized by shaking vigorously in 50% Clorox™ (3% sodium hypochlorite), containing 2-3 drops of Tween® 20, for about 20 minutes. The seeds were rinsed thoroughly with sterile distilled water. The sterile seed were plated onto ½ MS medium in Phytatrays or similar type boxes, and allowed to grow in the dark (28° C.) for 12 to 20 days. A maize protoplast transient assay was used to obtain and transfect maize protoplasts from leaves of Zea mays c.v. B104. This maize protoplast assay is a modification of the system described by Yoo, S.-D., Cho, Y.-H., and Sheen, J., (2007), Arabidopsis Mesophyll Protoplasts: A Versitile Cell System for Transient Gene Expression Analysis, Nature Protocols, 2: 1565-1572. The solutions were prepared as described by Yoo et. al., (2007), with the exception that the mannitol concentration used for the following experiments was change to 0.6 M.
Transfection of 100 to 500 μl of protoplasts (1-5×10^5 cells) was completed by adding the protoplasts to a 2 ml microfuge tube containing about 40 μg of plasmid DNA, at room temperature. The volume of DNA was preferably kept to about 10% of the protoplast volume. The protoplasts and DNA were occasionally mixed during a 5 minute incubation period. An equal volume of PEG solution was slowly added to the protoplasts and DNA, 2 drops at a time with mixing in between the addition of the drops of PEG solution. The tubes were allowed to incubate for about 10 minutes with occasional gentle mixing. Next, 1 ml of W5+ solution was added and mixed by inverting the tube several times. The tube(s) were centrifuged for 5 minutes at 75× g at a temperature of 4° C. Finally, the supernatant was removed and the pellet was resuspended in 1 ml of WI solution and the protoplasts were placed into a small petri plate (35×10 mm) or into 6-well multiwell plates and incubated overnight in the dark at room temperature. Fluorescence of GFP was viewed by microscopy after 12 hours of incubation. The microscopy conditions similar to those previously described were used for the imaging.

TraP28: synthetic chloroplast transit peptide, SEQ ID NO:8; tested fused to GFP (pDAB109849) (MAVQSNMICAGVANPFVSPNLSKTRASKSVYSVLGTRLNSSARGKKSAMPLIGNRVPVSA; TraP28)
translocation of YFP or GFP fluorescent protein into chloroplasts [1]: accumulated within the chloroplasts; also recorded: successfully targeted GFP to tobacco chloroplasts | translocation of YFP or GFP fluorescent protein into chloroplasts ([1]; listed as TraP28-GFP): translocated into the chloroplasts | TraP processed and cleaved from the YFP or GFP protein [2]: processed and cleaved from the YFP or GFP protein

TraP26: synthetic chloroplast transit peptide, SEQ ID NO:6; tested fused to GFP (pDAB109847) (MAQVSMIPNAIQAPCSISLSKSQAGKSVRKVSLKPNQHAAWGLRRSGMRVGNPEVVVSAS; TraP26)
translocation of YFP or GFP fluorescent protein into chloroplasts [1]: accumulated within the chloroplasts; also recorded: successfully targeted GFP to tobacco chloroplasts | translocation of YFP or GFP fluorescent protein into chloroplasts ([1]; listed as TraP26-GFP): translocated into the chloroplasts | TraP processed and cleaved from the YFP or GFP protein [2]: processed and cleaved from the YFP or GFP protein | protection to glyphosate [3]: provide protection to glyphosate

B1: TraP10: chimeric chloroplast transit peptide, SEQ ID NO:1; N-terminus Brassica napus, C-terminus Glycine max EPSPS; tested fused to YFP (pDAB101979) (protein)
chain: MAQSSRICHGVQNPCVIISNLSKSNQNKSPFSVSLRPRLWGASKSRIPMHKNGSFMGNFNVGKGNSGVFKVS
modifications: TraP10
translocation of YFP or GFP fluorescent protein into chloroplasts [1]: accumulated within the chloroplasts; also recorded: successfully targeted YFP to tobacco chloroplasts | translocation of YFP or GFP fluorescent protein into chloroplasts ([1]; listed as TraP10-YFP): translocated into the chloroplasts | TraP processed and cleaved from the YFP or GFP protein [2]: processed and cleaved from the YFP or GFP protein

B2: TraP17: chimeric chloroplast transit peptide, SEQ ID NO:3; N-terminus Calystegia, C-terminus Chlamydamonas reinhardtii; tested fused to GFP (pDAB107634) (protein)
chain: MAQVNNMMQGLRLSPSNLSKPQTPLPSHSLLLGSNSLKNSVSASSVAPAPACSAPAGAGRRAVVVR
modifications: TraP17
translocation of YFP or GFP fluorescent protein into chloroplasts [1]: did not translocate YFP fluorescent proteins into the chloroplasts of tobacco | translocation of YFP or GFP fluorescent protein into chloroplasts ([1]; listed as TraP17-GFP): did not translocate into the chloroplasts | translocation of GFP fluorescent protein into chloroplasts [4]: did translocate YFP fluorescent proteins into the chroroplasts of maize; also recorded: accumulated within the chloroplasts; also recorded: successfully targeted GFP to maize chloroplasts | translocation of GFP fluorescent protein into chloroplasts ([4]; listed as TraP17-GFP): translocated into the chloroplasts
